The values below come from patent US6403642B1, “Sulfur adsorbent for reducing onion or garlic breath odor” (PQ Holding, Inc., priority 1999, dated 2002).

Test [1] can be described thus: Sulfur compound adsorption in the presence of mint oil (sniff test), allyl mercaptan. The note with it: Allyl mercaptan 5 ppb (w/v), mint oil 50 ppb, adsorbent 0.1% w/v, 20 minutes of shaking, sniffed. As to the method:
(§1) All dilution operations were done using water under nitrogen in capped bottles. Hydrogen sulfide was measured as a gas in a syringe and injected into a sealed bottle containing deoxygenated water. The concentration (ppb w/w) was calculated assuming all of the hydrogen sulfide (H2S) dissolved in the water after shaking, and using the density of the gas.
(§2) All of the liquid compounds were handled by syringe. Concentrations of thiols are reported assuming that their specific gravity is 1. Adsorbents, as made by Example 1, were weighed as dry powders into bottles before sealing and before the addition of room temperature dilute sulfide solution. After 20 minutes of shaking, the bottle was unsealed and the contents carefully sniffed.
(§3) The object of the experiment was to remove the thiol odor but not to remove the mint oil aroma.

Test [2] is described as follows: Sulfur compound adsorption in the presence of mint oil (sniff test), propane thiol. The note with it: Propane thiol 5 ppb (w/v), mint oil 50 ppb, adsorbent 0.1% w/v, 20 minutes of shaking, sniffed. On the procedure: as §1, §2, §3
The nature of test [3]: Activity of metal complexes in removing garlic odor (sniffed for residual odor). On the set-up: key: ++: complete odor removal; +: slight odor remaining; −: no odor removal; NA: complex was not insoluble; ?: allyl mercaptan smell masked by methionine smell. The note with it: 5 ml solution with 627 nmol allyl mercaptan in water, sealed vial, 10 minutes, room temperature. As to the method: Each amino acid solution was made by dissolving 2.74 g of the amino acid into 40 ml of water. The complex with the metal was synthesized as described in the second step of Example 1.
Odor removal was tested using 5 ml of a solution containing 627 nmol of allyl mercaptan in water. A suspension of the metal complex was mixed with the mercaptan solution, reacted in a sealed vial for 10 minutes at room temperature, and then sniffed for residual odor.

Test [4] is described as follows: Sulfur compound adsorption in the presence of mint oil (sniff test), diallyl disulfide. The note with it: Diallyl disulfide 5 ppb (w/v), mint oil 50 ppb, adsorbent 0.1% w/v, 20 minutes of shaking, sniffed. On the procedure: as §1, §2, §3
Test [5] is described as follows: Sulfur compound adsorption in the presence of mint oil (sniff test), hydrogen sulfide. The note with it: H2S 50 ppb, mint oil 50 ppb, adsorbent 0.1% w/v, 20 minutes of shaking, sniffed. On the procedure: as §1, §2, §3

Cystine-copper Complex: the “Smell Garlic, Effect” value is reported as “v. faint” in test [1], “Faint” in test [2], “v. weak” in test [4] and “None” in test [5]. The “Activity in removing garlic odor” value in test [3] is “++”. For the same substance, in test [5], the “Smell Mint, Effect” value is on record as “strong”.
